For seven molecules, IC50 results are on record in PubChem BioAssay AID588571 (Sanford-Burnham Center for Chemical Genomics, 2011).

The assay deals with CHO-CHOP cells viability, ATPlite luminescence, 6 h. In words: cytotoxicity in CHO-CHOP reporter cells, SAR follow-up, cytotoxicity control for UPR adaptive arm activator project, cell-based, 6 h exposure, ATPlite luminescence (AID 588571).

The source made the active and inactive calls.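 Rule for the calls: active = mean IC50 at or below 20 µM; inactive = the rest.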

With `Cc1cc(Br)cc(NC(=O)c2cc(-c3ccncc3)nc3ccccc23)c1`, the IC50 was > 80 µM (inactive).
With `O=C(Nc1ccc(C(F)(F)F)cc1)c1cc(-c2ccncc2)nc2ccccc12`, the IC50 is 70.4 µM (inactive).
To `O=C(Nc1ccc(Br)c(C(F)(F)F)c1)c1cc(-c2ccncc2)nc2ccccc12` belongs > 80 µM (inactive); to `Cc1ccc(NC(=O)c2cc(-c3ccncc3)nc3ccccc23)cc1`, > 80 µM (inactive); to `O=C(Nc1ccc(F)cc1)c1cc(-c2ccncc2)nc2ccccc12`, > 80 µM (inactive).
To `Cc1nc(Nc2nc(-c3ccccc3)cc(=O)[nH]2)nc2ccccc12` belongs 60.1 µM (inactive); to `O=C(Nc1ccc(Cl)cc1)c1cc(-c2ccncc2)nc2ccccc12`, 75.4 µM (inactive).

For orientation: IC50 means the concentration at which inhibition is half-maximal.
